Some test systems named below: ACHN; HL-60; K562; KM12; LOX IMVI; MDA-MB-231; Malme-3M; NCI/ADR-RES; OVCAR-3; SK-MEL-5; SN12C; SNB-19; T47D; TK-10; UO-31; SF-539; SK-OV-3; SNB-75.
Common to all, as to assay: NCI anticancer screen, dose series, 48 h

Structures are written as SMILES.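 Results reflect a 48-hour exposure of cells in 96-well plates to compound at five concentrations. GI50 is the concentration that inhibits growth by half.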 The source made the active and inactive calls. Rule as the data show it: active = GI50 up to about 1.1 µM and inactive = higher.

Results on ten compounds are retold here after ChEMBL document CHEMBL1201862, “PubChem BioAssay data set” (2004).

`NC(=O)/N=C(\N)NC(=O)c1ccccc1`: the GI50 in the experiment with ACHN, in the experiment on HL-60, in the experiment on K562, in the experiment on KM12, with LOX IMVI and with MDA-MB-231 was > 100 µM (inactive) each time. Further, the GI50 in the experiment on Malme-3M, in the experiment with NCI/ADR-RES, in the experiment with OVCAR-3, with SK-MEL-5, in the experiment with SN12C and in the experiment on SNB-19 was > 100 µM (inactive) in each case. Besides, the GI50 in the experiment on T47D, in the experiment with TK-10 and in the experiment on UO-31 was > 100 µM (inactive) throughout.

For `COc1cc2c(c(N)c1OC)C(=O)/C(=C/c1cc(C)c(O)c(C)c1)C2`, the GI50 with HL-60 is < 0.01 µM (active); in the experiment on K562, < 0.01 µM (active); in the experiment with KM12, < 0.01 µM (active); in the experiment with LOX IMVI it was < 0.01 µM (active); in the experiment on MDA-MB-231, 0.0141 µM (active); with NCI/ADR-RES, 0.0104 µM (active). For the same compound, the GI50 in the experiment with OVCAR-3, with SF-539, in the experiment with SK-MEL-5, in the experiment with SK-OV-3, in the experiment with SN12C and with SNB-19 was < 0.01 µM (active) each time. The figures for the GI50 with T47D and in the experiment on TK-10 were > 100 µM (inactive) and > 76 µM (inactive), respectively.

In the case of `Cc1ccc(-c2c(C#N)c(S)n(NS(=O)(=O)c3ccc(C)cc3)c(=O)c2C#N)cc1`, the GI50 in the experiment with ACHN was 20.6 µM (inactive); in the experiment with HL-60, 14.9 µM (inactive); in the experiment with K562, 35.8 µM (inactive); in the experiment with KM12, 18 µM (inactive); with LOX IMVI, 27.2 µM (inactive); in the experiment with MDA-MB-231 it was 29.6 µM (inactive). Moreover, the GI50 was 3.56 µM (inactive) with Malme-3M; 32.8 µM (inactive) in the experiment with NCI/ADR-RES; 34.7 µM (inactive) in the experiment with OVCAR-3; 20.3 µM (inactive) in the experiment with SF-539; 21 µM (inactive) with SK-MEL-5; 45 µM (inactive) with SK-OV-3. Moreover, the GI50 was 31.5 µM (inactive) with SN12C; 21.6 µM (inactive) with SNB-19; 14.3 µM (inactive) with SNB-75; 19.8 µM (inactive) in the experiment with TK-10; 17.5 µM (inactive) with UO-31.

On to `O=C(CCN1CCCCC1)C(=Cc1ccccc1)C(=O)CCN1CCCCC1`, for which the GI50 in the experiment with ACHN was 9.73 µM (inactive); in the experiment with HL-60, 21.7 µM (inactive); in the experiment with K562, 19.7 µM (inactive); in the experiment on KM12 it was > 64.7 µM (inactive); with LOX IMVI it was 38.7 µM (inactive); with Malme-3M, > 10 µM (inactive). The GI50 is 74.5 µM (inactive) with NCI/ADR-RES; 3.74 µM (inactive) in the experiment on OVCAR-3; 49.8 µM (inactive) in the experiment on SF-539; > 100 µM (inactive) in the experiment on SK-MEL-5; > 100 µM (inactive) in the experiment on SK-OV-3; > 74.8 µM (inactive) with SN12C. In addition, the GI50 with SNB-19, in the experiment on SNB-75 and in the experiment on UO-31 was > 100 µM (inactive) in each case.

For the compound `NC1CC(=O)c2c(Br)csc21` (configuration not stated), the GI50 in the experiment with ACHN was 52 µM (inactive); in the experiment on HL-60 it was 39.2 µM (inactive); in the experiment on K562, 50.1 µM (inactive); in the experiment on KM12, 32.1 µM (inactive); in the experiment with MDA-MB-231, > 100 µM (inactive); with Malme-3M it was 46.8 µM (inactive). For the same compound, the GI50 with NCI/ADR-RES is > 100 µM (inactive); in the experiment with OVCAR-3, 50.6 µM (inactive); with SF-539, 35.6 µM (inactive); in the experiment with SK-MEL-5, 61.9 µM (inactive); in the experiment on SK-OV-3, > 100 µM (inactive); with SN12C, 27 µM (inactive). The GI50 in the experiment with SNB-19 was 36.3 µM (inactive); in the experiment on SNB-75 it was 96.2 µM (inactive); in the experiment on T47D, > 100 µM (inactive); with TK-10, 32.5 µM (inactive); in the experiment on UO-31, 33 µM (inactive).

Consider `CC12CC(=O)C3C(C(=O)C1)C32C` (configuration not stated), for which the GI50 in the experiment with ACHN is > 100 µM (inactive); with K562, > 100 µM (inactive); in the experiment with KM12, 0.488 µM (active); in the experiment with LOX IMVI it was > 100 µM (inactive); in the experiment on MDA-MB-231 it was > 100 µM (inactive); in the experiment on Malme-3M, 20.5 µM (inactive). For the same compound, the GI50 in the experiment with NCI/ADR-RES, in the experiment on OVCAR-3, in the experiment with SF-539, in the experiment on SK-MEL-5, with SK-OV-3 and in the experiment on SN12C was > 100 µM (inactive) in each case. The GI50 in the experiment with SNB-19 was > 100 µM (inactive); in the experiment with SNB-75 it was 45.3 µM (inactive); in the experiment with TK-10, > 100 µM (inactive); in the experiment on UO-31, > 100 µM (inactive).

For the compound `CC1(C)O[C@@H](CCl)C[C@H](C#N)O1`, the GI50 with ACHN, with HL-60, in the experiment on K562, in the experiment with KM12, with LOX IMVI and in the experiment on Malme-3M was > 100 µM (inactive) each time. In addition, the GI50 with OVCAR-3, in the experiment on SF-539, in the experiment on SK-MEL-5, with SK-OV-3, in the experiment on SN12C and in the experiment with SNB-19 was > 100 µM (inactive) in each case. The GI50 in the experiment on SNB-75, with TK-10 and in the experiment with UO-31 was > 100 µM (inactive) each time.

Consider `CC(C)(C)/N=C\N(C=C(c1ccccc1)c1ccccc1)C1CCCCC1`, for which the GI50 is 36.4 µM (inactive) with ACHN; 17.7 µM (inactive) with K562; 36.2 µM (inactive) in the experiment with KM12; 25.2 µM (inactive) in the experiment with LOX IMVI; 17.1 µM (inactive) with Malme-3M; 29.8 µM (inactive) in the experiment on OVCAR-3. Moreover, the GI50 in the experiment on SF-539 was 50.5 µM (inactive); in the experiment with SK-MEL-5, 16.5 µM (inactive); with SN12C, 43.4 µM (inactive); in the experiment with SNB-19, > 100 µM (inactive); with SNB-75 it was 33.7 µM (inactive); with TK-10 it was 78.3 µM (inactive).

`N#CC(c1nc2ccccc2s1)c1nc(Cl)ncc1Br` (configuration not stated): the GI50 is 28.2 µM (inactive) in the experiment with ACHN; 40.1 µM (inactive) in the experiment on KM12; 29.3 µM (inactive) in the experiment with LOX IMVI; 39.2 µM (inactive) in the experiment on MDA-MB-231; 41.4 µM (inactive) with Malme-3M; 30 µM (inactive) with NCI/ADR-RES. Further, the GI50 with OVCAR-3 was 27.2 µM (inactive); with SF-539, 31.5 µM (inactive); with SK-MEL-5, 19 µM (inactive); with SK-OV-3, 36.1 µM (inactive); with SN12C, 30.6 µM (inactive); with SNB-19, 40.6 µM (inactive). The GI50 with SNB-75 is 23.2 µM (inactive); in the experiment with T47D, 64.7 µM (inactive); in the experiment with TK-10 it was 37.3 µM (inactive); in the experiment on UO-31 it was 36.7 µM (inactive).

For the compound `O=C(NCCCC/N=c1/cccccc1NCCCCNC(=O)OCc1ccccc1)OCc1ccccc1`, the GI50 in the experiment with ACHN is 23.2 µM (inactive); in the experiment with HL-60, 13.2 µM (inactive); in the experiment on K562, 10.1 µM (inactive); in the experiment with KM12 it was 17.9 µM (inactive); with LOX IMVI it was 16.4 µM (inactive); in the experiment on Malme-3M, 20.4 µM (inactive). For the same compound, the GI50 is 14.3 µM (inactive) in the experiment with OVCAR-3; 16.3 µM (inactive) in the experiment on SF-539; 16.4 µM (inactive) in the experiment with SK-MEL-5; 20.5 µM (inactive) in the experiment with SK-OV-3; 18.8 µM (inactive) with SN12C; 23.8 µM (inactive) in the experiment with SNB-19. Moreover, the GI50 in the experiment on SNB-75 is 18.7 µM (inactive); with TK-10 it was 19.2 µM (inactive); in the experiment on UO-31, 7.43 µM (inactive).
